Data on 19 molecules can be found in ChEMBL document CHEMBL1151495, “Activity of new penems against defined MRSA strains” (1993).

≈ marks a conversion by molar mass, not a printed value.

Holding throughout (assay type): functional
Assay [1] relates to Staphylococcus aureus. In words: In vitro minimum inhibitory concentration against Staphylococcus aureus COL.
Assay [2] deals with Staphylococcus aureus. In words: In vitro minimum inhibitory concentration against Staphylococcus aureus SN 43.
Assay [3] concerns Staphylococcus aureus. In words: In vitro minimum inhibitory concentration against Staphylococcus aureus SN 7.
Assay [4] concerns Staphylococcus aureus. In words: In vitro minimum inhibitory concentration against Staphylococcus aureus CDC1.

For the molecule `C[C@@H](O)[C@H]1C(=O)N2C(C(=O)O)=C(COC(=O)c3ccc4ccc5ccccc5c4c3)S[C@H]12`, the MIC in assay [1] is 6.25 µg/mL (≈ 13.9 µM); in assay [2], 6.25 µg/mL (≈ 13.9 µM); in assay [3] it was below 0.011 µg/mL; in assay [4], below 0.011 µg/mL.
For `C[C@@H](O)[C@H]1C(=O)N2C(C(=O)O)=C(COc3ccccc3)S[C@H]12`, the MIC was found to be 50 µg/mL (≈ 156 µM) in assay [1], 100 µg/mL (≈ 311 µM) in assay [2], 50 µg/mL (≈ 156 µM) in assay [3] and 0.39 µg/mL (≈ 1.21 µM) in assay [4].
In the case of `C[C@@H](O)[C@H]1C(=O)N2C(C(=O)O)=C(COC(=O)c3ccc4ccccc4c3)S[C@H]12`, the MIC stood at 12.5 µg/mL (≈ 31.3 µM) in assay [1], 6.25 µg/mL (≈ 15.6 µM) in assay [2], 0.39 µg/mL (≈ 0.976 µM) in assay [3] and 0.09 µg/mL (≈ 0.225 µM) in assay [4].
Turning to `C[C@@H](O)[C@H]1C(=O)N2C(C(=O)O)=C(COc3cncc4ccccc34)S[C@H]12`, the MIC came to 6.25 µg/mL (≈ 16.8 µM) in assay [1], 12.5 µg/mL (≈ 33.6 µM) in assay [2], 3.12 µg/mL (≈ 8.38 µM) in assay [3] and 0.19 µg/mL (≈ 0.51 µM) in assay [4].
The like results for `C[C@@H](O)[C@H]1C(=O)N2C(C(=O)O)=C(COC(=O)c3ccc4c(ccc5ccccc54)c3)S[C@H]12` were, in that order, 3.12 µg/mL (≈ 6.94 µM), 6.25 µg/mL (≈ 13.9 µM), 0.09 µg/mL (≈ 0.2 µM) and 0.022 µg/mL (≈ 0.0489 µM).
For `C[C@@H](O)[C@H]1C(=O)N2C(C(=O)O)=C(COC(=O)c3cccnc3)S[C@H]12`, in that order: 50 µg/mL (≈ 143 µM), 100 µg/mL (≈ 285 µM), 0.19 µg/mL (≈ 0.542 µM) and 0.09 µg/mL (≈ 0.257 µM).
For `C[C@@H](O)[C@H]1C(=O)N2C(C(=O)O)=C(COC(=O)c3ccccc3)S[C@H]12`, in that order: 25 µg/mL (≈ 71.6 µM), 50 µg/mL (≈ 143 µM), 0.39 µg/mL (≈ 1.12 µM) and 0.09 µg/mL (≈ 0.258 µM).
As to `C[C@@H](O)[C@H]1C(=O)N2C(C(=O)O)=C(COC(=O)c3cn(C4CC4)c4cc(N5CCNCC5)c(F)cc4c3=O)S[C@H]12`, the MIC in assay [1] worked out at 6.25 µg/mL (≈ 11.2 µM); in assay [2], 50 µg/mL (≈ 89.5 µM); in assay [3], 1.56 µg/mL (≈ 2.79 µM); in assay [4] it was 0.39 µg/mL (≈ 0.698 µM).
The like results for `C[C@@H](O)[C@H]1C(=O)N2C(C(=O)O)=C(COc3cnccn3)S[C@H]12` were, in that order, 100 µg/mL (≈ 309 µM), above 100 µg/mL, 0.39 µg/mL (≈ 1.21 µM) and 0.19 µg/mL (≈ 0.588 µM).
Consider `C[C@@H](O)[C@H]1C(=O)N2C(C(=O)O)=C(COc3cncc(Cl)c3)S[C@H]12`, for which the MIC was 25 µg/mL (≈ 70.1 µM) in assay [1], 50 µg/mL (≈ 140 µM) in assay [2], 0.78 µg/mL (≈ 2.19 µM) in assay [3] and 0.09 µg/mL (≈ 0.252 µM) in assay [4].
`C[C@@H](O)[C@H]1C(=O)N2C(C(=O)O)=C(COc3c(I)cc(Cl)c4cccnc34)S[C@H]12`: the MIC in assay [1] turned out to be 6.25 µg/mL (≈ 11.7 µM); in assay [2] it was 25 µg/mL (≈ 46.9 µM); in assay [3], 0.78 µg/mL (≈ 1.46 µM); in assay [4] it was 0.09 µg/mL (≈ 0.169 µM).
As to `C[C@@H](O)[C@H]1C(=O)N2C(C(=O)O)=C(COC(=O)c3cnccn3)S[C@H]12`, the MIC in assay [1] is 100 µg/mL (≈ 285 µM); in assay [2] it was above 100 µg/mL; in assay [3] it was 0.39 µg/mL (≈ 1.11 µM); in assay [4] it was 0.19 µg/mL (≈ 0.541 µM).
The like results for `C[C@@H](O)[C@H]1C(=O)N2C(C(=O)O)=C(COc3cccnc3)S[C@H]12` were, in that order, 100 µg/mL (≈ 310 µM), 100 µg/mL (≈ 310 µM), 0.78 µg/mL (≈ 2.42 µM) and 0.19 µg/mL (≈ 0.589 µM).
For `C[C@@H](O)[C@H]1C(=O)N2C(C(=O)O)=C(COC(=O)c3cnc4ccccc4c3)S[C@H]12`, in that order: 6.25 µg/mL (≈ 15.6 µM), 12.5 µg/mL (≈ 31.2 µM), 0.19 µg/mL (≈ 0.475 µM) and 0.09 µg/mL (≈ 0.225 µM).
In the case of `CC(O)[C@H]1C(=O)N2C(C(=O)O)=C(SCCNC=N)C[C@H]12.O` (single isomer, unassigned) [IMIPENEM], the MIC turned out to be 25 µg/mL in assay [1], 25 µg/mL in assay [2], 0.19 µg/mL in assay [3] and 0.09 µg/mL in assay [4].
As to `O=C(O)c1cn(C2CC2)c2cc(N3CCNCC3)c(F)cc2c1=O` [CIPROFLOXACIN], the MIC in assay [3] was found to be 0.78 µg/mL (≈ 2.35 µM); in assay [4] it was 0.39 µg/mL (≈ 1.18 µM).
Regarding `C[C@@H](O)[C@H]1C(=O)N2C(C(=O)O)=C(S[C@@H]3CN[C@H](C(=O)N(C)C)C3)[C@H](C)[C@H]12` [MEROPENEM], the MIC was found to be 100 µg/mL (≈ 261 µM) in assay [1], 25 µg/mL (≈ 65.2 µM) in assay [2], 1.56 µg/mL (≈ 4.07 µM) in assay [3] and 0.19 µg/mL (≈ 0.495 µM) in assay [4].
The like results for `COc1cccc(OC)c1C(=O)N[C@@H]1C(=O)N2[C@@H]1SC(C)(C)[C@@H]2C(=O)O` [METHICILLIN] were, in that order, above 100 µg/mL, above 100 µg/mL, 6.25 µg/mL (≈ 16.4 µM) and 3.12 µg/mL (≈ 8.2 µM).
For `C[C@@H](O)[C@H]1C(=O)N2C(C(=O)O)=C(COC(N)=O)S[C@H]12` [RITIPENEM], in that order: 100 µg/mL (≈ 347 µM), 100 µg/mL (≈ 347 µM), 0.39 µg/mL (≈ 1.35 µM) and 0.19 µg/mL (≈ 0.659 µM).
